The subject of test [1] is luteinizing hormone (LH) in the blood serum of ovariectomized rats. Description: LH release in ovariectomized rats pretreated with estradiol and progesterone; serum LH by radioimmunoassay. The class given is in vivo, rat. As for the experimental part: This fact was established, in vivo, by measuring the increase of LH (before and after administration of [2-methyl-Ala^6 ]LRH) in the blood serum of ovariectomized rats pretreated with estradiol and progesterone according to the procedure of Schally et al., J. Biol. Chem. 246, 7230 (1971). The LH concentration in the blood serum was determined by radioimmunoassy according to the procedure of Berson et al., Metabolism 13, 1135 (1964). The results of this test are as follows: Dose nanograms ng LH/ml Serum % Dif- (ng) Animal No. Pre Post erence ______________________________________ 10 1 404.92 932.87 […] 10 2 541.37 1062.03 96.17 10 3 441.25 1568.03 255.43 10 4 459.07 1082.72 135.85 10 5 759.11 1681.84 111.52 No. of observations 5 5 5 Mean 523.34 1265.56 145.87 Standard error 70.34 150.08 28.28 T-value 5.1586 P-value 0.0080 ______________________________________

In test [2] the test system is Sprague-Dawley rats (pregnancy). The note with it: found by Alan Corbin (copending application Ser. No. 561,524), cited from earlier work.

“And” between values parts separate entries of the source, which are not always exact repeats. Equal values may be shown once. “Also recorded” adds a separate entry of the source.

In the case of `CC(C)C[C@H](NC(=O)C(C)(C)NC(=O)[C@H](Cc1ccc(O)cc1)NC(=O)[C@H](CO)NC(=O)[C@H](Cc1c[nH]c2ccccc12)NC(=O)[C@H](Cc1c[nH]cn1)NC(=O)[C@@H]1CCC(=O)N1)C(=O)N[C@@H](CCCNC(=N)N)C(=O)N1CCC[C@H]1C(=O)NCC(N)=O` [[2-methyl-Ala^6]LRH, L-(5-oxoprolyl)-L-histidyl-L-tryptophyl-L-seryl-L-tyrosyl-2-methylalanyl-L-leucyl-L-arginyl-L-prolylglycinamide], in test [1] (dose 10 ng, mean of 5 ovariectomized, estradiol/progesterone-pretreated rats, after administration (pre mean 523.34), standard error 150.08), the “ng LH/ml Serum, Post (Mean)” value is recorded as 1265.56 ng LH/ml. The “% Difference of serum LH, pre vs post (Mean)” value in test [1] (dose 10 ng, mean of 5 rats, standard error 28.28, P-value 0.0080) came out at 145.87%. Further, in test [1] (dose 10 ng, single animals 1 to 5 in order), the “% Difference of serum LH, pre vs post (individual animals No. 1-5)” value was 255.43% and 135.85% and 111.52% and 103.38% and 96.17%. The “ng LH/ml Serum, Post (individual animals No. 1-5)” value in test [1] (dose 10 ng, single animals 1 to 5 in order, after administration) is 932.87 ng LH/ml and 1062.03 ng LH/ml and 1568.03 ng LH/ml and 1082.72 ng LH/ml and 1681.84 ng LH/ml. For the same molecule, the “LH-releasing / LRH agonist activity (in words)” value in test [1] (in vivo, ovariectomized rats pretreated with estradiol and progesterone) is recorded as “active releaser of luteinizing hormone (LH); also recorded: active LRH agonist”. In test [2] (500 micrograms per day), the pregnancies prevented is listed as 100%. The “claudogenic/interceptive activity (in words)” value in test [2] is “active claudogenic/interceptive agent”.

The values above are taken from US3971737A, “[2-Methyl-Ala^6 ]LRH” (American Home Products Corporation, priority 1975, dated 1976).
